# Data: patent US10286038B2, “Lysosome membrane protein 2 (LIMP-2) based peptides and related uses” (Northwestern University, priority 2016, dated 2019)
# Positions count from the first letter of the chain named.
# How the values were obtained:
# [1] = biological target: T1, recombinant GC (Cerezyme) (Homo sapiens, UniProt P04062, R534H); assay: recombinant GC activity assay; format: biochemical; conditions: tenfold molar excess of peptide, acid pH, relative to buffer control
# T1 construct: purchased Genzyme Therapeutics, Boston, USA
# T1 sequence (P04062 40-536 R534H): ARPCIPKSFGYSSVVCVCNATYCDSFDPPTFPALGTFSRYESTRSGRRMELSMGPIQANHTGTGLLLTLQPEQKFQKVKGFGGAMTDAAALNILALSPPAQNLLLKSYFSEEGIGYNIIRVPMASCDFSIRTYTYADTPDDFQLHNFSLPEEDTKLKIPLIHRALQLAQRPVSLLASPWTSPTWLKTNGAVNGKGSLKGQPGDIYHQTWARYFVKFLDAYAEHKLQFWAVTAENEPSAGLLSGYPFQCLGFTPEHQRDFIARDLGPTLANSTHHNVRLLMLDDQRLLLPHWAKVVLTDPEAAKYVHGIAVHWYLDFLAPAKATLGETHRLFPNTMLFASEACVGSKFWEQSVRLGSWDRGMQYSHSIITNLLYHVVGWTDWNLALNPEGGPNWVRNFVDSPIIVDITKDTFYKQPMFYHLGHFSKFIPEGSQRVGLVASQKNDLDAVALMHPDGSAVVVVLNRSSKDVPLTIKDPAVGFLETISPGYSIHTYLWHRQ
# Experimental: Expression plasmids of LIMP-2 and human GC constructs were generated as described previously (1). For Western blotting nitrocellulose or PVDF membranes were used. EndoH/PNGaseF digests were performed according to manufacturer's instructions (New England Biolabs, Ipswich, USA). For co-immunoprecipitation experiments magnetic agarose G beads (Thermo Fisher Scientific, Waltham, USA) were utilized. Immunofluorescence studies were performed in cells as previously described (1, 3). Cellular co-localization of two proteins was determined by the Pearson's Index (35). Enzyme activity assays of cell lysates or recombinant protein were measured at acid pH using absorbent and fluorescent artificial substrates. For peptide studies, peptides were N-terminally tagged with biotin. If not stated otherwise, recombinant enzyme was incubated with a tenfold higher molarity of peptides. Conditions for pulldown experiments were kept at neutral pH. Protein modelling, molecular analyses, graphics and animations were performed with the UCSF Chimera package.
# To determine the enzymatic activity of the recombinant enzymes, lyophilized enzymes were reconstituted in the NaPi buffer described above. The lyophilized samples of wild-type GC (Cerezyme®) and the custom-made recombinant N307S mutant enzyme contain 0.01% polysorbate 80 (Tween 80) (see prescription information for Cerezyme® at the website for Cerezyme®). As indicated in our experiments, the concentration of the detergent is sufficient to support active GC enzyme and to perform the in vitro GC activity assays without adding further detergents to the reaction mix. For enzyme activity assays of recombinant proteins, 0.1-0.2 nmol of GC (Cerezyme®; N370S) and LAMAN were used in the absence or presence of 10× the molar amount of LIMP-2-derived peptides (Table 1) or LIMP-2 ectodomain (1-2 nmol) (Table 3).
# All activity assays were performed at acid pH.
# [2] = biological target: T2, recombinant N370S mutant GC (Homo sapiens, UniProt P04062, N409S); assay: activity assay of recombinant N370S mutant GC (4-MU substrate); format: biochemical; conditions: cell-free, tenfold molar amount of peptide, relative to buffer control
# T2 sequence (P04062 40-536 N409S): T1 sequence (P04062 40-536 R534H) with N370S, H495R
# Source text: To determine the enzymatic activity of the recombinant enzymes, lyophilized enzymes were reconstituted in the NaPi buffer described above. The lyophilized samples of wild-type GC (Cerezyme®) and the custom-made recombinant N307S mutant enzyme contain 0.01% polysorbate 80 (Tween 80) (see prescription information for Cerezyme® at the website for Cerezyme®). As indicated in our experiments, the concentration of the detergent is sufficient to support active GC enzyme and to perform the in vitro GC activity assays without adding further detergents to the reaction mix. […]
# Using the fluorescent substrate 4-MU (FIG. 3K), 10 μL of the recombinant enzyme/peptide mixture (0.1 nmol GC/N370S previously incubated with 1 nmol helix 5 TAT peptide in 50 mM NaPi buffer; total incubation volume 40 μL) were incubated directly with 60 μL of 0.2 M sodium citrate buffer and 10 μL of the substrate (5 mM dissolved in 0.2 M sodium citrate buffer) in a black-bottomed 96-well dish (Nunc no. 446473; Thermo Fisher Scientific). […] The fluorescence was assessed at an excitation wavelength of 365 nm and an emission wavelength of 445 nm in a SpectraMax i3 plate reader (Molecular Devices). […]
substance,measurement,setting,value
Biotin-Ttds-LREIIEAMLKAYQQKLFVTHTVDE [helix 5 peptide],increase of recombinant GC enzyme activity,[1],five times
same,increase of recombinant GC enzyme activity,[1]; listed as LIMP-2-derived helix 5 peptide,five-fold increase
Biotin-Ttds-KFERQLREIIEAMLKAYQQKLFVTHTVDEYGRKKRRQRRR [helix 5 TAT-peptide],increase of recombinant GC enzyme activity,[1],comparable effect
same,increase in the activity of the N370S mutant GC,[2],four-fold increase
